Test results reported in patent US11058668B2 (EIDOS THERAPEUTICS, INC., priority 2018, dated 2021).
Values joined by “and” are separate entries in the source; they are usually repeats but may differ in a detail not shown here. Equal entries are not always repeated.

What was measured:
TTR [1] = target: T1, TTR (Homo sapiens, UniProt P02766); assay: Isothermal titration calorimetry (ITC) with TTR in buffer; conditions: 25° C.; for Kd: PBS pH 7.4, single-site binding model
Method: (§1) Isothermal Titration Calorimetry (ITC). Binding experiments were performed using MicroCal PEAQ-ITC at 25° C. […] 19 injections of ligand (2.0 μL each) were injected into the ITC cell (at 25° C.) to the point that TTR was fully saturated with ligand. Calorimetric data were plotted and fitted using the standard single-site binding model.

[2] = target: T2, human serum albumin (HSA) (Homo sapiens, UniProt P02768); assay: ITC against human serum albumin; conditions: ITC titration against human serum albumin
T2 sequence (P02768 25-609): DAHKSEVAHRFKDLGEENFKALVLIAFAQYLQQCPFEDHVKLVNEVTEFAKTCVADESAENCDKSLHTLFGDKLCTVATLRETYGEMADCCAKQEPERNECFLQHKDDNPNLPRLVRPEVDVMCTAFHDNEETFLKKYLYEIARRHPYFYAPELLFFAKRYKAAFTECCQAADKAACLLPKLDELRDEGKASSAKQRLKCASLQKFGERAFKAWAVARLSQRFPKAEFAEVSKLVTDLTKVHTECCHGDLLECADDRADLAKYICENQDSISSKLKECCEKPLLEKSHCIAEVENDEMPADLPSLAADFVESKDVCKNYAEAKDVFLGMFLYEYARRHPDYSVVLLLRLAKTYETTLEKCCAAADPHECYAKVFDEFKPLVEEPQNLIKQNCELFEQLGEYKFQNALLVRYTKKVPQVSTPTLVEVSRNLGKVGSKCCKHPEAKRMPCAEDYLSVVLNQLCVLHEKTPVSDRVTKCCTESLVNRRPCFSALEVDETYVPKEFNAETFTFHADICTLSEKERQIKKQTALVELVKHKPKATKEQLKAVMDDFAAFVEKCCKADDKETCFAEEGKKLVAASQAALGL
Method: as §1

purified human TTRwt = purified human TTRwt (Homo sapiens, UniProt P02766); assay: Modified FPE assay with purified TTR plus other serum proteins (selectivity); format: binding; conditions: purified TTR 5 μM
Method: The percentage of FPE probe binding to TTR in the presence of serum proteins measured after 3 hr of incubation was used to calculate % TTR occupancy.

[3] = target: T2, human serum albumin (HSA); assay: Gel filtration and dialysis binding to human serum albumin; design: albumin from human serum; Sigma Aldrich, catalog no.: A3782; purchased Sigma Aldrich A3782; host or cells: human serum; conditions: 30 μM compound, 600 μM albumin
Method: The concentration of HSA (i.e. concentration at time zero) was also determined using NanoDrop™ (based on calibration curves of known HAS concentrations). […] The concentration of test compounds in these fractions (i.e. conc. at time zero) was evaluated using HPLC (based on calibration curves of known concentration of test compounds). 500 μL of each HSA/test compound samples was then added to a Slide-A-Lyzer Dialysis Cassette G2 (3.5K MWCO, Thermo Scientific, catalog no. P187722). The dialysis Cassettes were placed in 100 ml of assay buffer and stirred at room temperature. After 24 hr, the samples were removed from dialysis cassette and the volume was measured. The concentration of HAS and test compounds were determined using NanoDrop™ and HPLC as described above.

[4] = pKa values of stabilizers; format: physicochemical; conditions: carboxylic acid group
TTR [5] = target: T1, TTR; conditions: Tafamidis Phase 2 (FDA CDER background package); diflunisal observational study (Hanson 2018); cited from earlier work
TTR in human serum = target: T3, TTR in human serum (Homo sapiens, UniProt P02766); assay: FPE assay in human serum; format: binding; conditions: stabilizers 10 μM, human serum TTR 5 μM; FPE
T3 construct: pooled human serum (prepared from human male AB plasma, Sigma; catalog no; H4522; TTR concentration 5 μM); tissue Sigma H4522; host or cells: pooled human serum from human male AB plasma
From the text: FPE assay for binding TTR in buffer and human or dog serum. […] The FPE probe is a thioester TTR ligand that is not fluorescent by itself, however upon binding to the T4 binding site of TTR it covalently modifies lysine 15 (K15), creating a fluorescent conjugate. Ligands that bind to the T4 site of TTR will decrease FPE probe binding as observed by lower fluorescence. […] The change in fluorescence (λex=328 nm and λem=384 nm) were monitored using a microplate spectrophotometer reader (SpectraMax M5) for 6 hr at rt. […] The change in fluorescence (λex=328 nm and λem=384 nm) were monitored using a microplate spectrophotometer reader (SpectraMax M5) for 6 hr at rt.

TTR [6] = target: T4, TTR (Canis lupus familiaris, UniProt A0A8I3NFK0); assay: Single oral dose PK-PD in dogs, TTR occupancy by FPE; format: in vivo, beagle dog; conditions: 5 or 20 mg/kg AG10 HCl single oral dose
T4 construct: from tissue; host or cells: serum of orally dosed beagle dogs
Method: FPE assay for binding TTR in buffer and human or dog serum. […] The FPE probe is a thioester TTR ligand that is not fluorescent by itself, however upon binding to the T4 binding site of TTR it covalently modifies lysine 15 (K15), creating a fluorescent conjugate. Ligands that bind to the T4 site of TTR will decrease FPE probe binding as observed by lower fluorescence. The FPE assay was also adapted for use with dog serum. FPE with TTR in buffer: An aliquot of 98 μL of TTR in PBS (pH 7.4, final concentration: 2.5 μM) was mixed with 1 μL of test compounds (2.5 μM) and 1 μL of FPE probe (0.18 mM stock solution in DMSO: final concentration: 1.8 μM). The change in fluorescence (λex=328 nm and λem=384 nm) were monitored using a microplate spectrophotometer reader (SpectraMax M5) for 6 hr at rt. […] The change in fluorescence (λex=328 nm and λem=384 nm) were monitored using a microplate spectrophotometer reader (SpectraMax M5) for 6 hr at rt.
Blood was collected and analyzed pre-dose and at 2, 4, 6, 8, 12 and 24 hr post-dose.

TTR [7] = assay: Phase 2 study in ATTR-CM patients, serum TTR concentration (ARUP Prealbumin assay); format: in vivo, human; conditions: all genotypes, ATTR-CM patients
Method: Screening and randomization will be followed by a 28-day blinded, placebo-controlled treatment period. Approximately 45 subjects are planned to enroll in the Phase 2 study.
An ARUP Prealbumin assay was also used to analyze TTR blood serum concentration in the MAD cohorts tested. ARUP analyzes samples for prealbumin using the prealbumin reagent kit provided by Roche Diagnostics and run on the Roche Diagnostics c702 module. Lowest reportable limit is 3 mg/dL.
The phase 2 clinical study was performed essentially as described in Example 3. A total of 49 patents were included instead of 45: 16 receiving 400 mg bid; 16 receiving 800 mg bid; and 17 receiving placebo.
TTR stabilization was measured ex vivo using the FPE and Western blot assays described at the beginning of the examples section. TTR stabilization was measured in vivo by monitoring TTR serum concentrations in trial participants.

| SMILES | TΔS (TTR [1]) [kcal/mol] | ΔG (TTR [1]) [kcal/mol] | ΔH (TTR [1]) [kcal/mol] | Kd (TTR [1]) [nM] | also measured |
| --- | --- | --- | --- | --- | --- |
| O=C(O)c1ccc2nc(-c3cc(Cl)cc(Cl)c3)oc2c1 [Tafamidis, 2-(3,5-dichlorophenyl)-1,3-benzoxazole-6-carboxylic acid, reference compound] | 6.39 | – | -5.0 | – | Kd [2]: 2300 nM; TTR occupancy (purified human TTRwt; in the absence of albumin): 68.2±0.1%; TTR occupancy (purified human TTRwt; in the presence of albumin (600 μM)): 41.5±0.9%; concentration bound to HSA following dialysis vs buffer for 24 hr [3]: 18.8 ± 2.1 µM; concentration bound to albumin at time 0 (immediately after gel filtration) [3]: 24.1 ± 1.1 µM; ΔH (TTR [1]; listed as tafamidis): -5.00 kcal/mol and -5.0 kcal/mol; pKa [4]: 3.73; change in serum TTR levels (TTR [5]): increased serum TTR levels |
| Cc1n[nH]c(C)c1CCCOc1cc(C(=O)O)ccc1I [compound 1, 3-(3-(3,5-dimethyl-1H-pyrazol-4-yl)propoxy)-4-iodobenzoic acid] | -0.21 | -9.61 | -9.82 | 90 ± 14 | % TTR Occupancy in Serum (2:1 ratio) (TTR in human serum): 75.9 ± 3.1% |
| Cc1n[nH]c(C)c1CCCOc1cc(C(=O)O)ccc1F.Cl [AG10 HCl] | – | – | – | – | TTR occupancy, dose comparison (TTR [6]): enhanced TTR occupancy in the 20 mg/kg vs. 5 mg/kg dose groups; Blood Serum TTR Concentration, Average Change (baseline to day 28) (TTR [7]; 400 mg b.i.d.): 36%; Blood Serum TTR Concentration, Average Change (baseline to day 28) (TTR [7]; 800 mg b.i.d.): 50% |
| O=C(O)c1cc(-c2ccc(F)cc2F)ccc1O [Diflunisal, reference compound] | 0.34 | – | -8.38 | – | pKa [4]: 2.94; change in serum TTR levels (TTR [5]): increased serum TTR levels |

Second part, led by results:

| TΔS (TTR [1]) [kcal/mol] | ΔG (TTR [1]) [kcal/mol] | ΔH (TTR [1]) [kcal/mol] | Kd (TTR [1]) [nM] | SMILES | also measured |
| --- | --- | --- | --- | --- | --- |
| 6.0 | -8.1 | -2.1 | 1250 ± 79 | CCc1n[nH]c(CC)c1CCCOc1cc(C(=O)O)ccc1F [compound 4, 3-(3-(3,5-diethyl-1H-pyrazol-4-yl)propoxy)-4-fluorobenzoic acid] | – |
| 4.27 | -9.0 | -4.73 | 251 ± 12 | Cc1nn(C)c(C)c1CCCOc1cc(C(=O)O)ccc1F [compound 3, 4-fluoro-3-(3-(1,3,5-trimethyl-1H-pyrazol-4-yl)propoxy)benzoic acid] | – |
| 2.5 | -8.99 | -6.49 | 258 ± 17 | COC(=O)c1ccc(F)c(OCCCc2c(C)n[nH]c2C)c1 [compound 2, Methyl 3-(3-(3,5-dimethyl-1H-pyrazol-4-yl)propoxy)-4-fluorobenzoate] | – |
